Experimental data from US20220370453A1 (Storm Therapeutics Ltd, priority 2019, published 2022).

Legend:
BCDIN3D [1] = molecular target: T1, BCDIN3D (Homo sapiens, UniProt Q7Z5W3); assay: BCDIN3D InCellPulse thermal stability assay in transfected A549 cells; type: cell-based; details: transiently transfected A549 cells, heat shock 58° C. 15 min
T1 sequence (Q7Z5W3 1-292): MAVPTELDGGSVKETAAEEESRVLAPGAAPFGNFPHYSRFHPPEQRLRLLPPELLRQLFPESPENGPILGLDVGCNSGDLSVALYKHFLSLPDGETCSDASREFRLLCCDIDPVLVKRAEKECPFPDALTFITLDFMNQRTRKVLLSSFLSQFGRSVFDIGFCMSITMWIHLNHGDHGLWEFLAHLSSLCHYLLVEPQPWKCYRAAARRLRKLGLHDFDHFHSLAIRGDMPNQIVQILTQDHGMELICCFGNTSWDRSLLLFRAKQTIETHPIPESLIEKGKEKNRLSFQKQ
Procedure, shortened: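 A549 cells transiently expressing BCDIN3D N-terminally fused to ePL ProLabel tag, 1500 cells/well, pre-incubated 1 h at 37 °C with compound (0.6% DMSO). Heat shock 58 °C for 15 min; remaining soluble fusion detected by split β-galactosidase complementation luminescence.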

BCDIN3D [2] = molecular target: T1, BCDIN3D; assay: BCDIN3D IC50 RFMS (RapidFire) assay with mini-helix; type: biochemical; details: mini-helix substrate 0.2 μM, SAM 6 μM, 25 nM enzyme
Procedure, shortened: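 25 nM enzyme preincubated 10 min at room temperature with compound (1% DMSO) in 25 mM Tris pH 8.0, 10 mM DTT, 1 mM EDTA, 0.03% BSA. Reaction started with 0.2 μM mini-helix plus 6 μM SAM, run 1 h at 37 °C, quenched with TCA; SAH product quantified by RapidFire MS against isotopic SAH standards.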

IC50 (BCDIN3D [1]) [nM]	IC50 (BCDIN3D [2]) [nM]	SMILES
461	343	COC1CC(Nc2nc(NC[C@H](N)c3ccccc3)nc3c2cnn3C)C1 (stereo partly drawn) [Compound 4.92, N6-[(2R)-2-amino-2-phenyl-ethyl]-N4-(3-methoxycyclobutyl)-1-methyl-pyrazolo[3,4-d]pyrimidine-4,6-diamine]
72	25.8	Cn1ncc2c(NC3CC(Cl)(Cl)C3)nc(NC[C@H](N)c3ccccc3)nc21 [Compound 4.93, N6-[(2R)-2-amino-2-phenyl-ethyl]-N4-(3,3-dichlorocyclobutyl)-1-methyl-pyrazolo[3,4-d]pyrimidine-4,6-diamine]
47	6.1	Cn1ncc2c(NC3CC4(C3)CC(F)(F)C4)nc(NC[C@H](N)c3ccccc3)nc21 [Compound 4.94, N6-[(2R)-2-amino-2-phenyl-ethyl]-N4-(2,2-difluorospiro[3.3]heptan-6-yl)-1-methyl-pyrazolo[3,4-d]pyrimidine-4,6-diamine]
456	374	Cn1ncc2c(NC3CC4(COC4)C3)nc(NC[C@H](N)c3ccccc3)nc21 [Compound 4.95, N6-[(2R)-2-amino-2-phenyl-ethyl]-1-methyl-N4-(2-oxaspiro[3.3]heptan-6-yl)pyrazolo[3,4-d]pyrimidine-4,6-diamine]
21.8	14	Cn1ncc2c(NC3CC(C)(C)C3)nc(NC[C@H](N)c3ccccc3)nc21 [Compound 4.96, N6-[(2R)-2-amino-2-phenyl-ethyl]-N4-(3,3-dimethylcyclobutyl)-1-methyl-pyrazolo[3,4-d]pyrimidine-4,6-diamine]
176	84.3	Cn1ncc2c(NC3CC(C)(F)C3)nc(NC[C@H](N)c3ccccc3)nc21 (stereo partly drawn) [Compound 4.97, N6-[(2R)-2-amino-2-phenyl-ethyl]-N4-(3-fluoro-3-methyl-cyclobutyl)-1-methyl-pyrazolo[3,4-d]pyrimidine-4,6-diamine]
232	136	C[C@H](Nc1nc(NC[C@H](N)c2ccccc2)nc2c1cnn2C)C(F)(F)F [Compound 4.98, N6-[(2R)-2-amino-2-phenyl-ethyl]-1-methyl-N4-[(1S)-2,2,2-trifluoro-1-methyl-ethyl]pyrazolo[3,4-d]pyrimidine-4,6-diamine]
17	8	Cn1ncc2c(NC3CC4(CCC4)C3)nc(NC[C@H](N)c3ccccc3)nc21 [Compound 4.99, N6-[(2R)-2-amino-2-phenyl-ethyl]-1-methyl-N4-spiro[3.3]heptan-2-yl-pyrazolo[3,4-d]pyrimidine-4,6-diamine]
1860	1330	COCC(C)(C)Nc1nc(NC[C@H](N)c2ccccc2)nc2c1cnn2C [Compound 4.100, N6-[(2R)-2-amino-2-phenyl-ethyl]-N4-(2-methoxy-1,1-dimethyl-ethyl)-1-methyl-pyrazolo[3,4-d]pyrimidine-4,6-diamine]
330	463	CCC(C)(C)Nc1nc(NC[C@H](N)c2ccccc2)nc2c1cnn2C [Compound 4.101, N6-[(2R)-2-amino-2-phenyl-ethyl]-N4-(1,1-dimethylpropyl)-1-methyl-pyrazolo[3,4-d]pyrimidine-4,6-diamine]
2630	4380	C[C@H](Nc1nc(NC[C@H](N)c2ccccc2)nc2c1cnn2C)C1CC1 [Compound 4.102, N6-[(2R)-2-amino-2-phenyl-ethyl]-N4-[(1S)-1-cyclopropylethyl]-1-methyl-pyrazolo[3,4-d]pyrimidine-4,6-diamine]
480	321	CC(C)CNc1nc(NC[C@H](N)c2ccccc2)nc2c1cnn2C [Compound 4.103, N6-[(2R)-2-amino-2-phenyl-ethyl]-N4-isobutyl-1-methyl-pyrazolo[3,4-d]pyrimidine-4,6-diamine]
56	28	Cn1ncc2c(NCC3CC34CCC4)nc(NC[C@H](N)c3ccccc3)nc21 (stereo partly drawn) [Compound 4.104, N6-[(2R)-2-amino-2-phenyl-ethyl]-1-methyl-N4-(spiro[2.3]hexan-2-ylmethyl)pyrazolo[3,4-d]pyrimidine-4,6-diamine]
144	74	Cn1ncc2c(NCC3CCC3)nc(NC[C@H](N)c3ccccc3)nc21 [Compound 4.105, N6-[(2R)-2-amino-2-phenyl-ethyl]-N4-(cyclobutylmethyl)-1-methyl-pyrazolo[3,4-d]pyrimidine-4,6-diamine]
437	149	Cn1ncc2c(NCC3CCC3(F)F)nc(NC[C@H](N)c3ccccc3)nc21 (stereo partly drawn) [Compound 4.106, N6-[(2R)-2-amino-2-phenyl-ethyl]-N4-[(2,2-difluorocyclobutyl)methyl]-1-methyl-pyrazolo[3,4-d]pyrimidine-4,6-diamine]
618	280	Cn1ncc2c(NCC3(F)CCC3)nc(NC[C@H](N)c3ccccc3)nc21 [Compound 4.107, N6-[(2R)-2-amino-2-phenyl-ethyl]-N4-[(1-fluorocyclobutyl)methyl]-1-methyl-pyrazolo[3,4-d]pyrimidine-4,6-diamine]
611	288	Cn1ncc2c(NCC3CC(F)C3)nc(NC[C@H](N)c3ccccc3)nc21 (stereo partly drawn) [Compound 4.108, N6-[(2R)-2-amino-2-phenyl-ethyl]-N4-[(3-fluorocyclobutyl)methyl]-1-methyl-pyrazolo[3,4-d]pyrimidine-4,6-diamine]
34	17	Cn1ncc2c(NC3CC(C(F)(F)F)C3)nc(NC[C@H](N)c3ccccc3)nc21 (stereo partly drawn) [Compound 4.109, N6-[(2R)-2-amino-2-phenyl-ethyl]-1-methyl-N4-[3-(trifluoromethyl)cyclobutyl]pyrazolo[3,4-d]pyrimidine-4,6-diamine]
672	553	Cn1ncc2c(NCC(C)(C)F)nc(NC[C@H](N)c3ccccc3)nc21 [Compound 4.110, N6-[(2R)-2-amino-2-phenyl-ethyl]-N4-(2-fluoro-2-methyl-propyl)-1-methyl-pyrazolo[3,4-d]pyrimidine-4,6-diamine]
292	369	Cn1ncc2c(NC3(C)CCCCC3)nc(NC[C@H](N)c3ccccc3)nc21 [Compound 4.111, N6-[(2R)-2-amino-2-phenyl-ethyl]-1-methyl-N4-(1-methylcyclohexyl)pyrazolo[3,4-d]pyrimidine-4,6-diamine]
439	164	Cn1ncc2c(NCC3CCC3F)nc(NC[C@H](N)c3ccccc3)nc21 (stereo partly drawn) [Compound 4.112, N6-[(2R)-2-amino-2-phenyl-ethyl]-N4-[(2-fluorocyclobutyl)methyl]-1-methyl-pyrazolo[3,4-d]pyrimidine-4,6-diamine]
148	62	Cn1ncc2c(NC3CCCC3)nc(NC[C@H](N)c3ccccc3)nc21 [Compound 4.113, N6-[(2R)-2-amino-2-phenyl-ethyl]-N4-cyclopentyl-1-methyl-pyrazolo[3,4-d]pyrimidine-4,6-diamine]
1560	540	Cn1ncc2c(NCCC(F)(F)F)nc(NC[C@H](N)c3ccccc3)nc21 [Compound 4.114, N6-[(2R)-2-amino-2-phenyl-ethyl]-1-methyl-N4-(3,3,3-trifluoropropyl)pyrazolo[3,4-d]pyrimidine-4,6-diamine]
271	39	Cn1ncc2c(NCC3CC3(Cl)Cl)nc(NC[C@H](N)c3ccccc3)nc21 (stereo partly drawn) [Compound 4.115, N6-[(2R)-2-amino-2-phenyl-ethyl]-N4-[(2,2-dichlorocyclopropyl)methyl]-1-methyl-pyrazolo[3,4-d]pyrimidine-4,6-diamine]
123	151	Cn1ncc2c(NC3(C)CCCC3)nc(NC[C@H](N)c3ccccc3)nc21 [Compound 4.116, N6-[(2R)-2-amino-2-phenyl-ethyl]-1-methyl-N4-(1-methylcyclopentyl)pyrazolo[3,4-d]pyrimidine-4,6-diamine]
608	783	COC[C@@H](C)Nc1nc(NC[C@H](N)c2ccccc2)nc2c1cnn2C [Compound 4.117, N6-[(2R)-2-amino-2-phenyl-ethyl]-N4-[(1R)-2-methoxy-1-methyl-ethyl]-1-methyl-pyrazolo[3,4-d]pyrimidine-4,6-diamine]
2500	2150	Cn1ncc2c(NC(C)(C)C3CCOCC3)nc(NC[C@H](N)c3ccccc3)nc21 [Compound 4.118, N6-[(2R)-2-amino-2-phenyl-ethyl]-1-methyl-N4-(1-methyl-1-tetrahydropyran-4-yl-ethyl)pyrazolo[3,4-d]pyrimidine-4,6-diamine]
27	24	Cn1ncc2c(NC3CC4(CC4)C3)nc(NC[C@H](N)c3ccccc3)nc21 [Compound 4.119, 1-methyl-N6-[(2R)-2-amino-2-phenyl-ethyl]-N4-spiro[2.3]hexan-5-yl-pyrazolo[3,4-d]pyrimidine-4,6-diamine]
1450	252	Cn1ncc2c(NC3CC3(C)C)nc(NC[C@H](N)c3ccccc3)nc21 (stereo partly drawn) [Compound 4.120, N6-[(2R)-2-amino-2-phenyl-ethyl]-N4-(2,2-dimethylcyclopropyl)-1-methyl-pyrazolo[3,4-d]pyrimidine-4,6-diamine]
